In data set [1] the test system is human immunodeficiency virus (HIV). Conditions: cited from earlier work; for side effects: patients, clinical use.
Another data set relates to HIV-1 (HTLV-IIIB strain). Description: Inhibitory activity for HIV-induced cytopathogenicity (MT-4 cells, MTT method). Format: cell-based. The following applies: read-out: 50% inhibitory concentration of HIV infection. On the procedure:
(§1) In RPMI 1640 culture medium supplemented with 10% heat-inactivated fetal bovine serum, 2 mM of L-glutamine, 100 U/mL of penicillin G and 100 μg/mL of streptomycin, MT-4 cells (HTLV-1 transformed T4-cell line) at a concentration of 1×10^4 /well in a flat-bottom, microtiter plate were infected with 500 TCID50 of HIV-1 (HTLV-IIIB strain). Immediately after virus infection, sample serially diluted with culture medium from stock solution prepared in dimethyl sulfoxide was added to each well in quadriplicate. After 6 days incubation at 37° C., the viability of mock and HIV-infected cells was determined by the 3-(4,5-dimethylthiazol-2-yl)-2,5-diphenyltetrazolium bromide (MTT) method. And also, the cytotoxicity of sample to MT-4 cells not infected with HIV was assessed in parallel with its antiviral activity under the same way as above.

A short description of data set [2]: Cytotoxicity to MT-4 cells not infected with HIV (MTT method). Format: cell-based. Conditions: human. On the procedure:
as §1
A general note: Tetrazolium dyes change colour on reduction, which living cells bring about.

Setting [3] is: Human immunodeficiency virus 1, IIIB, MT4, 144 h.
[4] abbreviates: MT-4 cells not infected with HIV, 6 days, 37° C., MTT, read-out: 50% cytotoxic concentration to MT-4 cells.

Like-named read-outs stand apart in the source and are kept apart here.

Turning to `Cc1cn([C@H]2C[C@H](N=[N+]=[N-])[C@@H](CO)O2)c(=O)[nH]c1=O` [AZT, 3'-Deoxy-3'-azidothymidine, reference compound], in data set [1] (patients with AIDS and AIDS-related complex), the “clinical and immunological status of patients” value is “proven to improve the clinical and immunological status of patients with AIDS and AIDS-related complex”. Besides, in data set [1], the side effects entry was “serious side effects such as anemia and leukopenia”. The IC50 in the data set on HIV-1 (HTLV-IIIB strain) (setting [3]) is 0.0046 µM. Further, in data set [2] (setting [4]), the CC50 at 144 h was found to be 22.7 µM.

With `CCCCn1c([Se]c2cc(C)cc(C)c2)c(CC)c(=O)[nH]c1=O` [Compound 65, 1-butyl-6-[(3,5-dimethylphenyl)selenenyl]-5-ethyluracil], the IC50 with HIV-1 (HTLV-IIIB strain) (setting [3]) is 0.003 µM. For the same compound, the CC50 at 144 h in data set [2] (setting [4]) was found to be 27.9 µM.

As for `CCc1c([Se]c2ccccc2)n(CCCc2ccccc2)c(=O)[nH]c1=O` [Compound 73, 5-ethyl-1-(3-phenylpropyl)-6-(phenylselenenyl)uracil], the IC50 in the data set on HIV-1 (HTLV-IIIB strain) (setting [3]) is 0.003 µM. The CC50 at 144 h in data set [2] (setting [4]) amounted to 26.1 µM.

In the case of `CCc1c([Se]c2cc(C)cc(C)c2)n(CCCc2ccccc2)c(=O)[nH]c1=O` [Compound 74, 6-[(3,5-dimethylphenyl)selenenyl]-5-ethyl-1-(3-phenylpropyl)-uracil], the IC50 with HIV-1 (HTLV-IIIB strain) (setting [3]) was found to be 0.008 µM. Also, the CC50 at 144 h in data set [2] (setting [4]) was determined as 27.7 µM.

For `CCCCn1c([Se]c2ccccc2)c(C(C)C)c(=O)[nH]c1=O` [Compound 81, 1-butyl-5-isopropyl-6-(phenylselenenyl)uracil], the IC50 with HIV-1 (HTLV-IIIB strain) (setting [3]) worked out at 0.002 µM. For the same compound, the CC50 at 144 h in data set [2] (setting [4]) came out at 27.1 µM.

As to `CCCCn1c([Se]c2cc(C)cc(C)c2)c(C(C)C)c(=O)[nH]c1=O` [Compound 83, 1-butyl-6-[(3,5-dimethylphenyl)selenenyl]-5-isopropyluracil], in the data set with HIV-1 (HTLV-IIIB strain) (setting [3]), the IC50 amounted to 0.002 µM. Besides, in data set [2] (setting [4]), the CC50 at 144 h was 28.2 µM.

For the compound `CC(C)c1c([Se]c2ccccc2)n(CCCc2ccccc2)c(=O)[nH]c1=O` [Compound 84, 5-isopropyl-1-(3-phenylpropyl)-6-(phenylselenenyl)uracil], the IC50 in the data set with HIV-1 (HTLV-IIIB strain) (setting [3]) was found to be 0.008 µM. Moreover, in data set [2] (setting [4]), the CC50 at 144 h was 28 µM.

As for `Cc1cc(C)cc([Se]c2c(C(C)C)c(=O)[nH]c(=O)n2CCCc2ccccc2)c1` [Compound 86, 6-[(3,5-dimethylphenyl)selenenyl]-5-isopropyl-1-(3-phenylpropyl)-uracil], the IC50 with HIV-1 (HTLV-IIIB strain) (setting [3]) was 0.0006 µM. Further, in data set [2] (setting [4]), the CC50 at 144 h came out at 26.9 µM.

Regarding `Nc1ccn([C@H]2CC[C@@H](CO)O2)c(=O)n1` [DDC, 2',3'-dideoxycytidine, reference compound], the side effects result in data set [1] is “side effects such as peripheral neuropathy and pancreatitis”. In addition, in the data set on HIV-1 (HTLV-IIIB strain) (Human immunodeficiency virus 1, MT4, 144 h, MT-4 cells infected with 500 TCID50 HIV-1 (HTLV-IIIB strain), 6 days, 37° C., MTT), the IC50 came out at 0.6 µM. In data set [2] (mt-4 cells), this compound displayed a CC50 at 144 h of 17.6 µM.

In the case of `O=c1[nH]cnc2c1ncn2[C@H]1CC[C@@H](CO)O1` [DDI, 2',3'-dideoxyinosine], in data set [1], the side effects entry is “side effects such as peripheral neuropathy and pancreatitis”.

The values above are taken from patent US5889013A, “Pyrimidine acyclonucleoside derivatives” (priority 1994, dated 1999).
